IC50 and EC50 data for one molecule are collected here from patent US6395740B1, “Calcitonin mimetics” (ZymoGenetics, Inc., priority 1997, dated 2002).

Converted amounts (≈) assume the structure as drawn.

In experiment [1] the test system is PTH-induced bone resorption in mouse calvariae. Nature of the experiment: Calvarial assay: inhibition of PTH-induced bone resorption (calcium release). Type of experiment: cell-based. The following applies: 1 nM PTH 1-34, 72 hours, read-out: Release of PTH Induced Ca++ IC50. The protocol: Calvaria from 4-day old neonatal CD-1 mice (pregnant mice received from Charles River Laboratories, Wilmington, Mass.) were trimmed with fine-tipped scissors to leave the parietal regions, including the sagittal suture. These trimmed bones were placed singly per well into 6-well cell culture cluster plates (Costar, Pleasanton, Calif.) with 1 mL/well of growth medium (DMEM, BioWhittaker, Walkersville, Md.) with 4.5 g/L glucose, 0.29 mg/mL L-glutamine, 1 mM sodium pyruvate, 15% heat-inactivated horse serum, and antibiotics (penicillin-G 50 μg/mL, streptomycin 50 μg/mL, and neomycin 100 μg/mL), and rocked gently (RedRocker™, model PR50-115V, Hoefer, San Francisco, Calif.) at 37° C. in a 5% CO2 humidified incubator for 24 hours preincubation.
Following preincubation, medium was removed and replaced with 1.5 mL/well of growth medium containing 1 nM parathyroid hormone (PTH) 1-34 (Sigma) to stimulate bone resorption. For evaluation of the ability of calcitonin mimetics to inhibit PTH induced bone resorption, mimetic compounds in DMSO were added to the growth medium at concentrations ranging from 1-400 μg/mL (final assay concentration of DMSO less than or equal to […]). In each exierimerec human calcitonin (0.02-20 nM, 0.2-2 nM preferred) was added to PTH treated bones as a positive control. […] All control wells contained a final assay concentration of DMSO equal to that present in calcitonin mimetic treated wells.
Five bones were included in each sample group. Bones were incubated for 72 hours following PTH addition to allow resorption of bone to occur. Observations were made of the general appearance, healthiness and number of cells that migrate from the calvaria during the incubation as a possible indication of possible toxicity. Calvaria to be examined histologically were transferred to glass scintillation vials containing 10 mL of 10% neutral buffered formalin. The medium was removed from the wells, and total calcium measurements were made using a Nova 7/7+7 Electrolyte Analyzer (Nova Biomedical, Waltham, Mass.) according to the manufacturer's specifications. Induction of bone resorption by PTH is seen as an increase in the concentration of calcium in the growth medium due to degradation of the bone matrix.

The target in experiment [2] is T1, human calcitonin receptor (Homo sapiens, UniProt P30988).
T1 construct: expressed in transfected cells; host or cells: BHK (baby hamster kidney) cells, line Hollex-2 (Hollex 1 in the general description)
T1 sequence (P30988 25-474): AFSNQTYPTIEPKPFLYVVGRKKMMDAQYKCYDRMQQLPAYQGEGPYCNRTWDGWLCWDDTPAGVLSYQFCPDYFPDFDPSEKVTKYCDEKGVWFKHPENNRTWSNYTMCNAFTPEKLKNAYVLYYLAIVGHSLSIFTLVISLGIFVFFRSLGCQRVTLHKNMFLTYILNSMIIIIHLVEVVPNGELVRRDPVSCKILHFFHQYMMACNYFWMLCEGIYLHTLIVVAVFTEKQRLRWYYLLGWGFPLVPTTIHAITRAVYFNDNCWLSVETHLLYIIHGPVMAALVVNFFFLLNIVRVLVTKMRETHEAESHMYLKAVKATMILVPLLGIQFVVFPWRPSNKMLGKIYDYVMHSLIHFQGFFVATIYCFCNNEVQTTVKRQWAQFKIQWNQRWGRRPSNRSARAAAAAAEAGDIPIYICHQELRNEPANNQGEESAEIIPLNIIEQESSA
The experiment can be described thus: CRE-luciferase assay for calcitonin mimetic activity. Type of experiment: cell-based. An excerpt: An alternative assay system (described in WO96/31536 which is incorporated herein in its entirety) involves selection of substances that are able to induce expression of a cyclic AMP response element (CRE)-luciferase reporter gene, as a consequence of elevated cAMP levels, in cells expressing a calcitonin receptor, but not in cells lacking calcitonin receptor expression. Such cells could include, for example, Boris/KS10-3 (expressing hamster calcitonin receptor and a CRE-luciferase reporter gene in baby hamster kidney cells (BHK 570 cells)) or Hollex 1 (expressing human calcitonin receptor and a CRE-luciferase reporter gene in BHK cells, as described in WO96/31536) or KZ10-20-48/pLJ6-4-25, which expresses the human glucagon receptor and a CRE-luciferase reporter gene in BHK cells. The human glucagon receptor is another member of the G-protein-coupled receptor family that transduces signal through adenylate cyclase-mediated elevation of cAMP.
This CRE-luciferase assay measures the end result of a multi-step signal transduction pathway triggered when a calcitonin mimetic stimulates the G-coupled calcitonin receptor. The complexity of this pathway provides multiple mechanisms for induction of luciferase transcription at points that are downstream of the calcitonin receptor, and therefore may not be calcitonin receptor-specific (e.g., forskolin's direct activation of adenylate cyclase). Any response triggered by non-specific inducers is eliminated by counter screening using the calcitonin receptor-negative cell lines described above.
Receptor-positive and -negative cell lines were maintained by serial passage in growth medium (DMEM supplemented with 10% heat-inactivated fetal calf serum (HI-FCS), 2 mM L-glutamine, 1 mM sodium pyruvate, 250 nM MTX, and 1 mg/mL G418). On the day prior to assay, cells were trypsinized, adjusted to 2×10^5 cells/mL in growth medium, plated in opaque white Dynatech Microlite microtiter tissue culture plates at 100 μL/well (2×10^4 cells), and grown overnight to confluence (37° C., 5% CO2 atmosphere)
Test substances were prepared in DMSO at 100 times the final desired assay concentration. Induction was initiated by adding 100 μL/well test substance diluted 1:100 or 1:1000 (only first round screening extracts were diluted 1:100) in assay medium (DMEM supplemented with 10% HI-FCS, 2 mM L-glutamine, 1 mM sodium pyruvate and 20 mM Hepes, pH 7.25). Controls were included on each plate: untreated wells (basal), […] forskolin, and 100 nM human calcitonin. For test substances prepared in DMSO, an equal concentration of DMSO was included in control wells (not to exceed a final assay concentration of 2% DMSO, with a preferred maximum of 1%). Plates were incubated for 3 to 8 hours (4 hours preferred) at 37° C. in an atmosphere of 5% CO2.
Following induction, luciferase activity was measured using a Promega luciferase assay kit (E1500) according to the assay kit protocol. Briefly, assay medium was removed and cells were washed once with phosphate buffered saline (PBS). After the wash, 25 μL of lysis buffer was added to each well, and the plates were incubated for 15 minutes at room temperature. Fifty microliters of Luciferase Assay Substrate (Promega, Corp.) was added to each well and the plates were transferred to a Labsystems Lumiscan microtiter luminometer. The amount of luminescence (relative light units, RLU) was determined by “Fastscan” following a 0.1 second/well integration of signal. Basal (uninduced) luciferase signal was subtracted from all measurements, and the luciferase signal induced by test samples was expressed as a percentage of the signal in the calcitonin and forskolin controls. […]

In general, IC50 refers to the midpoint of a concentration-inhibition curve. What is called EC50 is the concentration giving half of the maximal effect. With `COc1cc(CN2CCN(C(=O)Nc3cccc(C(F)(F)F)c3)CC2)ccc1O` [Compound 850-0231], in experiment [1], the IC50 lay within 25 to 50 µg/mL (≈ 61.1 to 122 µM). For the same molecule, the 50% effective concentration (EC50) in experiment [2] was 61.1 to 122 µM.
